ChEMBL document CHEMBL2380231, “X-ray crystal structure of ERK5 (MAPK7) in complex with a specific inhibitor” (J Med Chem, 2013)
pEC50: −log10 of the molar value. Active and inactive are the calls of the source. The calls are words filed in the database; no cut-off is given here.

Columns and labels:
Format in all cases: cell-based
[1] = target: T1, Mitogen-activated protein kinase; ERK1/ERK2 (Homo sapiens) (UniProt P27361+P28482); assay: Inhibition of ERK1/ERK2 phosphorylation in sorbitol-stimulated human HeLa cells at 0.04 to 5 uM incubated for 1 hr prior to sorbitol stimulation measured after 30 mins by Western blot analysis
T1 sequence (P27361 whole entry, looked up): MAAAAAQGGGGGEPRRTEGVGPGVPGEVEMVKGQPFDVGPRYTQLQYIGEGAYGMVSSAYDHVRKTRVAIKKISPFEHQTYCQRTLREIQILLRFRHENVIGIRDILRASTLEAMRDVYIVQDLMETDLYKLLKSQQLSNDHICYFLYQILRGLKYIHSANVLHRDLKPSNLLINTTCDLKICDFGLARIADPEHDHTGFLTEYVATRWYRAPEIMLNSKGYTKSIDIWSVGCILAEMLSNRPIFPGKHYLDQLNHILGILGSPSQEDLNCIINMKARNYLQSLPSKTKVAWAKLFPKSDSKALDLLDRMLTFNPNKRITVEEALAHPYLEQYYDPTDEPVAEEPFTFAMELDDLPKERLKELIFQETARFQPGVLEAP
T1 sequence (P28482 whole entry, looked up): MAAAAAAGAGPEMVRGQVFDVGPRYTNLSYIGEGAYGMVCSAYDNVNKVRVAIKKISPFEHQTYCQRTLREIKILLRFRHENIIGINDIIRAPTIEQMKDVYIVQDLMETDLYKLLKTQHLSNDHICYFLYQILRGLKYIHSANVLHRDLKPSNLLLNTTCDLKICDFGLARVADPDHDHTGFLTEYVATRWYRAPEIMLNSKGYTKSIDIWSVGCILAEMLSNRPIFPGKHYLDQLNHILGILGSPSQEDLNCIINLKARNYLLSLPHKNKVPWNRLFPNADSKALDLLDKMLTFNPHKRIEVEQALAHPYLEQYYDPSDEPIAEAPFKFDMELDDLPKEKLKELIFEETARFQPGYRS

[2] = target: T2, Mitogen-activated protein kinase 7 (Homo sapiens, UniProt Q13164); assay: Inhibition of ERK5 autophosphorylation in sorbitol-stimulated human HeLa cells at 0.04 to 5 uM incubated for 1 hr prior to sorbitol stimulation measured after 30 mins by Western blot analysis
Target sequence in this assay (Q13164 2-816 limits assumed): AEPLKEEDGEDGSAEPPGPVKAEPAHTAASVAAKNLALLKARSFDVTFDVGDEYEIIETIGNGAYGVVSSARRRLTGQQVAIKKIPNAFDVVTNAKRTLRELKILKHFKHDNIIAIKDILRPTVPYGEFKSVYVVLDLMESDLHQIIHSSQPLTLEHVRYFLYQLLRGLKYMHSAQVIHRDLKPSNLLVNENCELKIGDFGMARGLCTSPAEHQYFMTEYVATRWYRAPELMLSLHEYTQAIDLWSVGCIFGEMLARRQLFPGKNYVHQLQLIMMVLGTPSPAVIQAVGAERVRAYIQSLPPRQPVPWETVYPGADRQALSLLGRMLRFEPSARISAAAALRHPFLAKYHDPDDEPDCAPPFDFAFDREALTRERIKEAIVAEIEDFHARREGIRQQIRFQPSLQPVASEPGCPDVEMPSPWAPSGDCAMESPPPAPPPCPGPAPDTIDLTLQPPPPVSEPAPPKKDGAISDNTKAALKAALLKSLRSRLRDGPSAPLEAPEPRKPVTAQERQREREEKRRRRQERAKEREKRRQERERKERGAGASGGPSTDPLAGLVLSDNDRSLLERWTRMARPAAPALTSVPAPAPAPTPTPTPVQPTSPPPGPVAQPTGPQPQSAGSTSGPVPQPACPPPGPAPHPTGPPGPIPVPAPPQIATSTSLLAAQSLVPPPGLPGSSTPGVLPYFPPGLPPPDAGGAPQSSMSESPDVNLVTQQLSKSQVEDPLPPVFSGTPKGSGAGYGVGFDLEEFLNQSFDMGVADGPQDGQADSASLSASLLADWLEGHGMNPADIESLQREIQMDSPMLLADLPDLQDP

[3] = target: T1, Mitogen-activated protein kinase; ERK1/ERK2 (Homo sapiens); assay: Inhibition of total ERK1/ERK2 in sorbitol-stimulated human HeLa cells at 0.04 to 5 uM incubated for 1 hr prior to sorbitol stimulation measured after 30 mins by Western blot analysis
[4] = target: T2, Mitogen-activated protein kinase 7; assay: Inhibition of GST-tagged full length human ERK5 transfected in HEK293 cells assessed as inhibition of AP1 transcriptional activity after 24 hrs by dual luciferase reporter gene assay
Target sequence in this assay (Q13164 whole entry): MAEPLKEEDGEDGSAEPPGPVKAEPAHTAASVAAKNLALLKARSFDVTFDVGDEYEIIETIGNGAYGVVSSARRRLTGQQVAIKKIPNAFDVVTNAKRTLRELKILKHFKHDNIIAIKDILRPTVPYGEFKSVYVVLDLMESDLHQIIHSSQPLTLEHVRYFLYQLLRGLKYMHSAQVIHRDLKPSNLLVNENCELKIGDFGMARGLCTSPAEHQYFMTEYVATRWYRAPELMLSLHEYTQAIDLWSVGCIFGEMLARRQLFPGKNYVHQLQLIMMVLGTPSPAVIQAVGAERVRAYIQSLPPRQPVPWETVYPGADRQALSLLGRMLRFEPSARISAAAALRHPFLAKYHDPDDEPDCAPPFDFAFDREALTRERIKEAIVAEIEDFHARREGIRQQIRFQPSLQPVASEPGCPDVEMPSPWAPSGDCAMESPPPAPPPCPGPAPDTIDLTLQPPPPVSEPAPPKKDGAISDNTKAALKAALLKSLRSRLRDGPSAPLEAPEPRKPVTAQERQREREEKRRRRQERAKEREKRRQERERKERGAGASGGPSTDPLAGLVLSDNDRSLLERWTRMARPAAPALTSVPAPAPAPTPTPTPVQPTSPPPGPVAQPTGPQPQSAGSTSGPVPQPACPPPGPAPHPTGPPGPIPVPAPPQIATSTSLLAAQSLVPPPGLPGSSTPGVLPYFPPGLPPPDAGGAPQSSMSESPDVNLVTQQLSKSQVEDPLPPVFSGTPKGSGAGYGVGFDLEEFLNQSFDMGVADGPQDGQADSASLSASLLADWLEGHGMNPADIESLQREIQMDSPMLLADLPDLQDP

inhibition [1]	inhibition [2]	inhibition [3]	pEC50 [4]	Compound
inactive	Active	inactive	–	CCOc1cc(C(=O)N2CCC(N3CCN(C)CC3)CC2)ccc1Nc1ncc2c(n1)N(C1CCCC1)c1ccccc1C(=O)N2C
–	–	–	< 4.52	COc1cc(C(=O)N2CCC(N3CCN(C)CC3)CC2)ccc1Nc1ncc2c(n1)N1CCc3cccc(c31)C(=O)N2C
